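Test compounds were applied to cells in 96-well plates for 48 hours at 5 doses. Definition used: TGI = concentration required for complete inhibition of growth.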
Assays:
Assay in all cases: NCI anticancer screen, dose series, 48 h
[1] = system: SF-268 CNS
[2] = system: K-562 leukemia
[3] = system: DMS 273 small cell lung
[4] = system: HL-60(TB) leukemia
[5] = system: HOP-92 NSCLC
[6] = system: A549 NSCLC
[7] = system: LOX IMVI melanoma
[8] = system: HOP-62 NSCLC
[9] = system: SF-295 CNS
[10] = system: DLD-1 colon
[11] = system: NCI-H23 lung
[12] = system: LXFL 529 NSCLC
[13] = system: CAKI-1 renal
[14] = system: COLO 205 colon
[15] = system: M19-MEL melanoma
[16] = system: OVCAR-3 ovarian
[17] = system: IGROV1 ovarian
[18] = system: NCI-H460 lung
[19] = system: M14 melanoma
[20] = system: TK-10 renal
[21] = system: SF-539 CNS
[22] = system: SK-MEL-28 melanoma
[23] = system: SNB-78 CNS
[24] = system: UACC-62 melanoma
[25] = system: SK-MEL-2 melanoma
[26] = system: KM20L2 colon
[27] = system: 786-0 renal
[28] = system: SNB-75 CNS
[29] = system: A498 renal
[30] = system: UACC-257 melanoma
[31] = system: SN12C renal
[32] = system: SW-620 colon
[33] = system: RPMI-8226 leukemia
[34] = system: MOLT-4 leukemia
[35] = system: SR leukemia
[36] = system: HT29 colon
[37] = system: MALME-3M melanoma
[38] = system: NCI-H226 lung
[39] = system: DMS 114 small cell lung
[40] = system: SK-MEL-5 melanoma
[41] = system: NCI-H522 lung
[42] = system: OVCAR-8 ovarian
[43] = system: SNB-19 CNS
[44] = system: EKVX NSCLC
[45] = system: U251 CNS
[46] = system: OVCAR-5 ovarian
[47] = system: HCT-116 colon
[48] = system: UO-31 renal
[49] = system: CCRF-CEM leukemia
[50] = system: ACHN renal
[51] = system: SK-OV-3 ovarian
[52] = system: HCC-2998 colon
[53] = system: KM12 colon

CCOC1=CP(=O)(OCC)CC(C)=C1Cl (stereo not drawn)
TGI [1]: > 100 µM | TGI [2]: > 100 µM | TGI [3]: 75.2 µM | TGI [4]: > 100 µM | TGI [5]: > 100 µM | TGI [6]: > 100 µM | TGI [7]: > 100 µM | TGI [8]: > 100 µM | TGI [9]: > 100 µM | TGI [10]: > 100 µM | TGI [11]: > 100 µM | TGI [12]: > 100 µM | TGI [13]: > 100 µM | TGI [14]: 25.2 µM | TGI [15]: > 100 µM | TGI [16]: > 100 µM | TGI [17]: > 100 µM | TGI [18]: > 100 µM | TGI [19]: > 100 µM | TGI [20]: > 100 µM | TGI [21]: > 100 µM | TGI [22]: > 100 µM | TGI [23]: > 100 µM | TGI [24]: > 100 µM | TGI [25]: > 100 µM | TGI [26]: > 100 µM | TGI [27]: > 100 µM | TGI [28]: > 100 µM | TGI [29]: > 100 µM | TGI [30]: > 100 µM | TGI [31]: > 100 µM | TGI [32]: > 100 µM | TGI [33]: > 100 µM | TGI [34]: > 100 µM | TGI [35]: > 100 µM | TGI [36]: > 100 µM | TGI [37]: > 100 µM | TGI [38]: > 100 µM | TGI [39]: > 100 µM | TGI [40]: > 100 µM | TGI [41]: > 100 µM | TGI [42]: > 100 µM | TGI [43]: > 100 µM | TGI [44]: > 100 µM | TGI [45]: > 100 µM | TGI [46]: > 100 µM | TGI [47]: > 100 µM | TGI [48]: > 100 µM | TGI [49]: > 100 µM | TGI [50]: > 100 µM | TGI [51]: > 100 µM | TGI [52]: > 100 µM | TGI [53]: > 100 µM

Reference: PubChem BioAssay (NCI)
